Measurements: paper PMC6263338, “Synthesis of Some Phenylpropanoid Glycosides (PPGs) and Their Acetylcholinesterase/Xanthine Oxidase Inhibitory Activities” (Molecules, 2011)
“Also recorded” adds a separate entry of the source. Like-named read-outs stand apart in the source and are kept apart here.

Key:
[1] = target: T1, Xanthine Oxidase (from buttermilk) (Bos taurus, UniProt P80457); assay: In vitro XOD inhibitory activity (Xanthine Oxidase Detection Kit); format: biochemical; conditions: for inhibition at 1500 µg/mL: read-out: XOD inhibitory activity % inhibition (1.5 mg/mL); for XOD inhibitory activity (in words): summary of Table 1; for XOD inhibitory activity % inhibition (1.5 mg/mL): compounds in 1% DMSO, mean ± SD, triplicate
T1 construct: Xanthine Oxidase (from buttermilk, Sigma Co., Ltd. X4875); purchased Sigma Co., Ltd. X4875; host or cells: buttermilk
Procedure: (§1) In vitro inhibitory activity test of these glycosides against AChE and XOD was studied by using Acetylcholinesterase Detection Kit and Xanthine Oxidase Detection Kit.
Assay of the in vitro AChE/XOD inhibitory activity: The tests of in vitro inhibitory activity of these PPGs against AChE (from drosophila, Jing Peng Bio-Pesticide Co., Ltd. Shandong, P. R. China) and Xanthine Oxidase (from buttermilk, Sigma Co., Ltd. X4875) were carried out by using AChE (or XOD) Detection Kits (Jian Cheng Bioengineering Institute, Nan Jin, Jiangsu, P. R. China), following the manufacturer’s protocol. All the compounds were dissolved in 1% DMSO. […] If an inhibition of more than 30% was observed, the compound was classified as active. The active compounds were consequently tested at seven concentrations. The results were read on a microplate reader at the wavelength of 450 nm/530 nm. All the assays were performed in triplicate with three independent experiments. The IC50 values were calculated using XLfit software.

AChE (from drosophila) = target: T2, AChE (from drosophila) (Drosophila melanogaster, UniProt P07140); assay: In vitro AChE inhibitory activity (Acetylcholinesterase Detection Kit); format: biochemical; conditions: for inhibition at 1500 µg/mL: read-out: AChE inhibitory activitiy % inhibition (1.5 mg/mL); for inhibitory activities toward cholinesterase (in words): summary of Table 1
T2 construct: purchased Jing Peng Bio-Pesticide Co., Ltd. Shandong, P. R. China
Procedure: as §1
Assay of the in vitro AChE/XOD inhibitory activity: The tests of in vitro inhibitory activity of these PPGs against AChE (from drosophila, Jing Peng Bio-Pesticide Co., Ltd. Shandong, P. R. China) and Xanthine Oxidase (from buttermilk, Sigma Co., Ltd. X4875) were carried out by using AChE (or XOD) Detection Kits (Jian Cheng Bioengineering Institute, Nan Jin, Jiangsu, P. R. China), following the manufacturer’s protocol. All the compounds were dissolved in 1% DMSO. […] The results were read on a microplate reader at the wavelength of 450 nm/530 nm. All the assays were performed in triplicate with three independent experiments. The IC50 values were calculated using XLfit software.

[2] = 1.5 mg/mL, compounds in 1% DMSO, mean ± SD, triplicate
[3] = seven concentrations, mean ± SD of triplicate independent experiments, – = not active
[4] = read-out: XOD inhibitory activity IC50, seven concentrations, mean ± SD of triplicate independent experiments, – = not active
[5] = read-out: AChE inhibitory activitiy IC50, seven concentrations, mean ± SD of triplicate independent experiments, – = not active
[6] = seven concentrations, mean ± SD of triplicate independent experiments, – = not active, read-out: AChE inhibitory activitiy IC50

| Molecule | inhibition at 1500 µg/mL [1] [%] | inhibition at 1500 µg/mL (AChE (from drosophila); [2]) [%] | AChE inhibitory activitiy IC50 (μM) (AChE (from drosophila); [3]) | IC50 [1, 4] [µM] | IC50 (AChE (from drosophila); [5]) [µM] | XOD inhibitory activity IC50 (μM) [1, 3] | IC50 (AChE (from drosophila); [6]) [µM] | other results |
| --- | --- | --- | --- | --- | --- | --- | --- | --- |
| COc1cc(C=CCO[C@@H]2O[C@H](CO)[C@@H](O)[C@H](O)[C@H]2O)cc(OC)c1OC [Compound 10h, 3,4,5-Trimethoxycinnamyl β-D-glucopyranoside] | 33 ± 2.16 | 17 ± 4.33 | – (not active (less than 30% inhibition at 1.5 mg/mL)) |  |  |  |  | IC50 [1]: 69.3 ± 1.3 µM |
| OC[C@H]1O[C@@H](OCC=Cc2ccc(Cl)cc2)[C@H](O)[C@@H](O)[C@@H]1O [Compound 10j, 4-Chlorocinnamyl β-D-glucopyranoside] | 50 ± 2.35 | 42 ± 3.23 |  | 24.3 ± 1.4 | 38.3 ± 1.4 |  |  | XOD inhibitory activity (in words) [1]: have XOD inhibitory activity |
| COc1cc(C=CCO[C@@H]2O[C@H](CO)[C@@H](O)[C@H](O)[C@H]2O)cc(OC)c1 [Compound 10c, 3,5-Dimethoxycinnamyl β-D-glucopyranoside] | 21 ± 1.21 | 23 ± 0.85 | – (not active (less than 30% inhibition at 1.5 mg/mL)) |  |  | – (not active (less than 30% inhibition at 1.5 mg/mL)) |  |  |
| OC[C@H]1O[C@@H](OCC=Cc2ccc(O)cc2)[C@H](O)[C@@H](O)[C@@H]1O [Compound 16a, 4-Hydroxycinnamyl β-D-glucopyranoside] | 32 ± 1.63 | 34 ± 2.67 |  |  |  |  | 75.2 ± 1.2 | IC50 [1]: 79.3 ± 0.7 µM |
| OC[C@H]1O[C@@H](OCC=Cc2ccc(F)c(F)c2)[C@H](O)[C@@H](O)[C@@H]1O [Compound 10k, 3,4-Difluorocinnamyl β-D-glucopyranoside] | 37 ± 2.78 | 43 ± 2.31 |  | 55.4 ± 1.3 |  |  | 35.5 ± 1.1 |  |
| 3-Bromo-4-ethoxy-5-methoxycinnamylcinnamyl β-D-glucopyranoside [Compound 10n] |  |  |  |  |  |  | 87.3 ± 2.1 | XOD inhibitory activity % inhibition (1.5 mg/mL) [1]: 28 ± 1.74%; IC50 ([1]; seven concentrations, mean ± SD of triplicate independent experiments, – = not active, read-out: XOD inhibitory activity IC50): 97.3 ± 0.8 µM; AChE inhibitory activitiy % inhibition (1.5 mg/mL) (AChE (from drosophila); [2]): 36 ± 3.55% |
| COc1cc(C=CCO[C@@H]2O[C@H](CO)[C@@H](O)[C@H](O)[C@H]2O)ccc1O [Compound 16c, 4-Hydroxy-3-methoxycinnamyl β-D-glucopyranoside] | 23 ± 0.93 |  |  |  | 25.7 ± 0.7 | – (not active (less than 30% inhibition at 1.5 mg/mL)) |  | inhibition at 1500 µg/mL (AChE (from drosophila)): 54 ± 2.34% |
| 4-Trifluoromethycinnamyl β-D-glucopyranoside [Compound 10f] |  |  | – (not active (less than 30% inhibition at 1.5 mg/mL)) |  |  | – (not active (less than 30% inhibition at 1.5 mg/mL)) |  | XOD inhibitory activity % inhibition (1.5 mg/mL) [1]: 5 ± 0.22%; AChE inhibitory activitiy % inhibition (1.5 mg/mL) (AChE (from drosophila); [2]): 22 ± 2.44% |
| COc1ccc(C=CCO[C@@H]2O[C@H](CO)[C@@H](O)[C@H](O)[C@H]2O)cc1O [Compound 16d, 3-Hydroxy-4-methoxycinnamyl β-D-glucopyranoside] | 56 ± 2.34 | 66 ± 3.45 |  | 16.5 ± 1.1 | 10.3 ± 2 |  |  | XOD inhibitory activity (in words) [1]: have XOD inhibitory activity |
| COc1ccc(C=CCO[C@@H]2O[C@H](CO)[C@@H](O)[C@H](O)[C@H]2O)cc1OC [Compound 10d, 3,4-Dimethoxycinnamyl β-D-glucopyranoside] | 35 ± 3.22 | 43 ± 1.35 |  |  |  |  | 43.5 ± 0.6 | IC50 [1]: 73.5 ± 1.5 µM |
| OC[C@H]1O[C@@H](OCC=Cc2ccc3c(c2)OCO3)[C@H](O)[C@@H](O)[C@@H]1O [Compound 10g, 3,4-Methylenedioxycinnamyl β-D-glucopyranoside] | 13 ± 1.43 | 15 ± 3.55 | – (not active (less than 30% inhibition at 1.5 mg/mL)) |  |  | – (not active (less than 30% inhibition at 1.5 mg/mL)) |  |  |
| COc1ccc(C=CCO[C@@H]2O[C@H](CO)[C@@H](O)[C@H](O)[C@H]2O)cc1 [Compound 10a, 4-Methoxycinnamyl β-D-glucopyranoside] | 10 ± 2.22 | 15 ± 3.27 | – (not active (less than 30% inhibition at 1.5 mg/mL)) |  |  | – (not active (less than 30% inhibition at 1.5 mg/mL)) |  |  |
| OC[C@H]1O[C@@H](OC/C=C/c2ccccc2)[C@H](O)[C@@H](O)[C@@H]1O [Compound 10m, Cinnamyl β-D-glucopyranoside] | 38 ± 2.83 | 16 ± 0.44 | – (not active (less than 30% inhibition at 1.5 mg/mL)) | 93.2 ± 1.4 |  |  |  |  |
| OC[C@H]1O[C@@H](OCC=Cc2ccc(Br)cc2)[C@H](O)[C@@H](O)[C@@H]1O [Compound 10l, 4-Bromocinnamyl β-D-glucopyranoside] | 55 ± 3.67 | 57 ± 1.22 |  | 19.6 ± 1.5 | 22.4 ± 0.6 |  |  | XOD inhibitory activity (in words) [1]: have XOD inhibitory activity; inhibitory activities toward cholinesterase (in words) (AChE (from drosophila)): moderate inhibitory activities |
| OC[C@H]1O[C@@H](OCC=Cc2cccc(O)c2)[C@H](O)[C@@H](O)[C@@H]1O [Compound 16b, 3-Hydroxycinnamyl β-D-glucopyranoside] | 41 ± 2.22 | 75 ± 2.12 |  | 29.6 ± 1.2 | 7.62 ± 1.1 |  |  | XOD inhibitory activity (in words) [1]: have XOD inhibitory activity |
| O[C@@H]1[C@@H](O)[C@H](OC/C=C/c2ccccc2)O[C@H](CO[C@@H]2OC[C@H](O)[C@H](O)[C@H]2O)[C@H]1O [Compound 20, Rosavin] | 73 ± 0.02 | 85 ± 0.21 |  |  |  |  | 1.72 ± 0.1 | IC50 [1]: 5.55 µM |
| OC[C@H]1O[C@@H](OCC=Cc2ccccc2F)[C@H](O)[C@@H](O)[C@@H]1O [Compound 10i, 2-Fluorocinnamyl β-D-glucopyranoside] | 24 ± 1.32 | 18 ± 2.11 | – (not active (less than 30% inhibition at 1.5 mg/mL)) |  |  | – (not active (less than 30% inhibition at 1.5 mg/mL)) |  |  |
| O[C@@H]1[C@@H](O)[C@H](OCC=Cc2ccccc2)O[C@H](CO[C@@H]2OC[C@@H](O)[C@H](O)[C@H]2O)[C@H]1O [Compound 21, Cinnamyl 6-O-(β-D-xylopyranosyl)-β-D-glucopyranoside] | 74 ± 0.12 | 82 ± 0.11 |  | 4.56 ± 0.1 | 3.71 ± 0.1 |  |  |  |
| C[C@@H]1O[C@@H](OC[C@H]2O[C@@H](OCC=Cc3ccccc3)[C@H](O)[C@@H](O)[C@@H]2O)[C@H](O)[C@H](O)[C@H]1O [Compound 23, Cinnamyl 6-O-(α-L-rhamnopyranosyl)-β-D-glucopyranoside] | 60 ± 0.01 | 81 ± 0.05 |  | 8.21 |  |  | 2.05 |  |
| COc1ccccc1C=CCO[C@@H]1O[C@H](CO)[C@@H](O)[C@H](O)[C@H]1O [Compound 10b, 2-Methoxycinnamyl β-D-glucopyranoside] | 12 ± 3.12 | 62 ± 4.53 |  |  |  | – (not active (less than 30% inhibition at 1.5 mg/mL)) |  | IC50 (AChE (from drosophila)): 15.5 ± 2.1 µM; inhibitory activities toward cholinesterase (in words) (AChE (from drosophila)): moderate inhibitory activities; also recorded: more potent than the corresponding unsubstituted compound 10m |
| COc1ccc(C=CCO[C@@H]2O[C@H](CO[C@@H]3OC[C@H](O)[C@H](O)[C@H]3O)[C@@H](O)[C@H](O)[C@H]2O)cc1 [Compound 22, 4-Methoxycinnamyl 6-O-(α-L-arabinopyranosyl)-β-D-glucopyranoside] | 65 ± 0.1 | 72 ± 0.1 |  | 5.71 ± 0.1 |  |  | 4.23 ± 0.1 |  |
| COc1cccc(C=CCO[C@@H]2O[C@H](CO)[C@@H](O)[C@H](O)[C@H]2O)c1OC [Compound 10e, 2,3-Dimethoxycinnamyl β-D-glucopyranoside] | 22 ± 0.85 | 34 ± 4.36 |  |  | 71.2 ± 2.8 | – (not active (less than 30% inhibition at 1.5 mg/mL)) |  |  |
